According to patent US10878939B2, “Methods and compositions for personalized pain management” (Children's Hospital Medical Center, priority 2014, dated 2020):

How the values were obtained:
[1] = system: children undergoing tonsillectomy; test: Analgesic effectiveness outcomes by sex and morphine dose (Example 6)
[2] = system: children undergoing tonsillectomy; test: Respiratory depression and prolonged PACU stay due to RD by ABCB1 genotype (Example 7)
Text: Children 6-15 years undergoing elective outpatient tonsillectomy were eligible for the study and recruited on the day of surgery. […] Clinical criteria for OSA designation included sleep disordered breathing with a history of snoring and either sleep pauses lasting more than 10 seconds or daytime drowsiness. Children were excluded from the study if they or their parents were non-English speaking.
All participants received standard perioperative care. Anesthesia was induced using sevoflurane followed by a propofol (2 mg/kg) bolus to facilitate endotracheal intubation. Anesthesia was maintained with sevoflurane without the use of neuromuscular blockade. […] All children receive prophylactic ondansetron (0.1 mg/kg) and dexamethasone (0.1 mg/kg) intraoperatively.
Duration of PACU stay (time to achieve PACU discharge readiness) was defined as the duration in PACU before achieving the following discharge criteria. […] This is discharge readiness time is different from actual PACU discharge time as delays due to social reasons (e.g. waiting for car rides) were not included.
Metrics for analgesic effectiveness and opioid-related adverse effects were recorded for each participant. For the metrics for opioid-related adverse effects, this study focused on two clinically and economically important outcomes: clinical RD and prolonged PACU stay (>90 minutes) secondary to respiratory depression assessed consistently by the research coordinator.
Blood was collected from each participant in the operating room under anesthesia and the DNA was isolated the same day and stored at −20 degree Celsius. Batched genotyping was performed after clinical data was entered on all study participants. The TaqMan allelic discrimination system assays and Genotyper Softerware Version 1.0.1 (Life Technologies, Applied Biosystems, Forest City, Calif.) were used to analyse and report the following ABCB1 polymorphisms: rs1045642, rs2032582, rs1128503, rs2229109, and rs9282564.
Prior to analysis, data qualities were examined. For the ABCB1 variants, allelic and genotype frequencies were assessed in white and black patients separately, and Hardy Weinberg equilibrium (HWE) was tested. To analyze binary outcomes (RD, prolonged PACU secondary to RD and analgesic intervention need), logistic regression was performed. […] Thus, maximum FLACC scores were analyzed using a zero-inflated negative binomial model to appropriately capture the distribution of this variable. […] To select the best fitting model, log likelihood, Akaike and Bayesian Information criterion were compared, and residuals were examined. […] To assess the single SNP association with the outcomes, additive models were used, in which the genotypes were recoded and tested as continuous variables. For the four bi-allelic SNPs, genotypes were recoded to 0, 1 and 2 according to the number of minor alleles. For rs2032582, GG genotype was recoded as 0; GA and GT genotypes were combined and recoded as 1, and TT and TA genotypes as 2. Statistical modeling was conducted with white and black patients separately and combined. When races were combined, the effects of race and race*SNP interaction were tested.

[3] = F, intra-op morphine >0.2 mg/kg
[4] = F, intra-op morphine >0.1-0.2 mg/kg
[5] = F, intra-op morphine ≤0.1 mg/kg
[6] = M, intra-op morphine >0.2 mg/kg
[7] = M, intra-op morphine >0.1-0.2 mg/kg
[8] = M, intra-op morphine ≤0.1 mg/kg

With `CN1CC[C@]23c4c5ccc(O)c4O[C@H]2[C@@H](O)C=C[C@H]3[C@H]1C5` [morphine] the “Analgesic intervention need in PACU, number of cases” value ([1]; F, All) was 67, the “Analgesic intervention need in PACU, proportion” value ([1]; F, All) was “(31%)” and the “Maximum FLACC pain score, median” value ([1]; F, All) was 2. For the same molecule, the “Maximum NRS pain score, median” value ([1]; F, All) was 6, the “Number of analgesic interventions, median” value ([1]; F, All) was 1 and the “Post-operative morphine, mean ± SD” value ([1]; F, All) was 0.09 ± 0.05 mg/kg. The “Prolonged PACU stay due to pain, number of cases” value ([1]; F, All) was 37, the “Prolonged PACU stay due to pain, proportion” value ([1]; F, All) was “(17%)” and the “Analgesic intervention need in PACU, number of cases” value ([1]; F, OSA No) was 35. For the same molecule, the “Analgesic intervention need in PACU, proportion” value ([1]; F, OSA No) was “(28%)”, the “Maximum FLACC pain score, median” value ([1]; F, OSA No) was 2 and the “Maximum NRS pain score, median” value ([1]; F, OSA No) was 6. For the same molecule, the “Number of analgesic interventions, median” value ([1]; F, OSA No) was 1, the “Post-operative morphine, mean ± SD” value ([1]; F, OSA No) was 0.08 ± 0.04 mg/kg and the “Prolonged PACU stay due to pain, number of cases” value ([1]; F, OSA No) was 21. For the same molecule, the “Prolonged PACU stay due to pain, proportion” value ([1]; F, OSA No) was “(17%)”, the “Analgesic intervention need in PACU, number of cases” value ([1]; F, OSA Yes) was 32 and the “Analgesic intervention need in PACU, proportion” value ([1]; F, OSA Yes) was “(34%)”. For the same molecule, the “Maximum FLACC pain score, median” value ([1]; F, OSA Yes) was 2, the “Maximum NRS pain score, median” value ([1]; F, OSA Yes) was 5 and the “Number of analgesic interventions, median” value ([1]; F, OSA Yes) was 1. The “Post-operative morphine, mean ± SD” value ([1]; F, OSA Yes) was 0.09 ± 0.06 mg/kg, the “Prolonged PACU stay due to pain, number of cases” value ([1]; F, OSA Yes) was 16 and the “Prolonged PACU stay due to pain, proportion” value ([1]; F, OSA Yes) was “(17%)”. For the same molecule, the “Analgesic intervention need in PACU, number of cases (%)” value (shortened to “Analgesic intervention need … (%)”) [1, 3] was 22 (51), the “Maximum FLACC pain score, median (IQR)” value [1, 3] was 1 (0-5) and the “Maximum NRS pain score, median (IQR)” value [1, 3] was 6 (3-9). For the same molecule, the “Number of analgesic interventions, median (IQR)” value (“Number … (IQR)” for short) [1, 3] was 1 (0-1), the “Post-operative morphine, mean ± SD” value [1, 3] was 0.10 ± 0.05 mg/Kf and the “Prolonged PACU stay due to pain, number of cases (%)” value (shortened to “Prolonged PACU stay due … (%)”) [1, 3] was 12 (28). For the same molecule, the “Analgesic intervention need … (%)” value [1, 4] was 40 (61), the “Maximum FLACC pain score, median (IQR)” value [1, 4] was 2 (0-5) and the “Maximum NRS pain score, median (IQR)” value [1, 4] was 5 (2-8). For the same molecule, the “Number … (IQR)” value [1, 4] was 1 (0-1), the “Post-operative morphine, mean ± SD” value [1, 4] was 0.09 ± 0.05 mg/Kf and the “Prolonged PACU stay due … (%)” value [1, 4] was 22 (33). For the same molecule, the “Analgesic intervention need … (%)” value [1, 5] was 5 (100), the “Maximum FLACC pain score, median (IQR)” value [1, 5] was 3 (3-4) and the “Maximum NRS pain score, median (IQR)” value [1, 5] was 8 (6-10). The “Number … (IQR)” value [1, 5] was 1 (1-2), the “Post-operative morphine, mean ± SD” value [1, 5] was 0.07 ± 0.03 mg/Kf and the “Prolonged PACU stay due … (%)” value [1, 5] was 3 (60). The “Analgesic intervention need in PACU, number of cases” value ([1]; M, All) was 61, the “Analgesic intervention need in PACU, proportion” value ([1]; M, All) was “(28%)” and the “Maximum FLACC pain score, median” value ([1]; M, All) was 2. The “Maximum NRS pain score, median” value ([1]; M, All) was 5, the “Number of analgesic interventions, median” value ([1]; M, All) was 1 and the “Post-operative morphine, mean ± SD” value ([1]; M, All) was 0.09 ± 0.05 mg/kg. For the same molecule, the “Prolonged PACU stay due to pain, number of cases” value ([1]; M, All) was 36, the “Prolonged PACU stay due to pain, proportion” value ([1]; M, All) was “(16%)” and the “Analgesic intervention need in PACU, number of cases” value ([1]; M, OSA No) was 35. For the same molecule, the “Analgesic intervention need in PACU, proportion” value ([1]; M, OSA No) was “(28%)”, the “Maximum FLACC pain score, median” value ([1]; M, OSA No) was 2 and the “Maximum NRS pain score, median” value ([1]; M, OSA No) was 6. The “Number of analgesic interventions, median” value ([1]; M, OSA No) was 1, the “Post-operative morphine, mean ± SD” value ([1]; M, OSA No) was 0.09 ± 0.05 mg/kg and the “Prolonged PACU stay due to pain, number of cases” value ([1]; M, OSA No) was 24. The “Prolonged PACU stay due to pain, proportion” value ([1]; M, OSA No) was “(19%)”, the “Analgesic intervention need in PACU, number of cases” value ([1]; M, OSA Yes) was 26 and the “Analgesic intervention need in PACU, proportion” value ([1]; M, OSA Yes) was “(27%)”. The “Maximum FLACC pain score, median” value ([1]; M, OSA Yes) was 4, the “Maximum NRS pain score, median” value ([1]; M, OSA Yes) was 5 and the “Number of analgesic interventions, median” value ([1]; M, OSA Yes) was 1. For the same molecule, the “Post-operative morphine, mean ± SD” value ([1]; M, OSA Yes) was 0.09 ± 0.05 mg/kg, the “Prolonged PACU stay due to pain, number of cases” value ([1]; M, OSA Yes) was 12 and the “Prolonged PACU stay due to pain, proportion” value ([1]; M, OSA Yes) was “(13%)”. The “Analgesic intervention need … (%)” value [1, 6] was 20 (54), the “Maximum FLACC pain score, median (IQR)” value [1, 6] was 2 (0-5) and the “Maximum NRS pain score, median (IQR)” value [1, 6] was 6 (4-7). The “Number … (IQR)” value [1, 6] was 1 (0-1), the “Post-operative morphine, mean ± SD” value [1, 6] was 0.09 ± 0.05 mg/Kf and the “Prolonged PACU stay due … (%)” value [1, 6] was 12 (32). For the same molecule, the “Analgesic intervention need … (%)” value [1, 7] was 36 (58), the “Maximum FLACC pain score, median (IQR)” value [1, 7] was 3 (1-7) and the “Maximum NRS pain score, median (IQR)” value [1, 7] was 5 (2-8). For the same molecule, the “Number … (IQR)” value [1, 7] was 1 (0-1), the “Post-operative morphine, mean ± SD” value [1, 7] was 0.10 ± 0.05 mg/Kf and the “Prolonged PACU stay due … (%)” value [1, 7] was 22 (35). For the same molecule, the “Analgesic intervention need … (%)” value [1, 8] was 5 (83), the “Maximum FLACC pain score, median (IQR)” value [1, 8] was 3 (1-5) and the “Maximum NRS pain score, median (IQR)” value [1, 8] was 6 (5-9). The “Number … (IQR)” value [1, 8] was 1 (1-2), the “Post-operative morphine, mean ± SD” value [1, 8] was 0.07 ± 0.04 mg/Kf and the “Prolonged PACU stay due … (%)” value [1, 8] was 2 (33). The “sex-specific morphine effects on analgesic outcomes” value ([1]; univariate or multivariate modeling) was “no evidence of sex-specific morphine effects”, the “patients with RD” value ([2]; 263 patients) was 19% and the “patients with prolonged PACU stay due to RD” value ([2]; 263 patients) was 11%. The “Prolonged PACU due to RD %” value ([2]; Blacks, ABCB1 rs1045642 CC, N=27) was 7%, the “Prolonged PACU due to RD %” value ([2]; Blacks, ABCB1 rs1045642 TC, N=14) was 21% and the “Prolonged PACU due to RD %” value ([2]; Blacks, ABCB1 rs1045642 TT, N=3) was 33%. The “Prolonged PACU due to RD %” value ([2]; Blacks, ABCB1 rs1128503 CC, N=24) was 8%, the “Prolonged PACU due to RD %” value ([2]; Blacks, ABCB1 rs1128503 TC, N=18) was 17% and the “Prolonged PACU due to RD %” value ([2]; Blacks, ABCB1 rs1128503 TT, N=2) was 50%. The “Prolonged PACU due to RD %” value ([2]; Blacks, ABCB1 rs2032582 GA, N=1) was 0%, the “Prolonged PACU due to RD %” value ([2]; Blacks, ABCB1 rs2032582 GG, N=35) was 11% and the “Prolonged PACU due to RD %” value ([2]; Blacks, ABCB1 rs2032582 GT, N=8) was 25%. The “Prolonged PACU due to RD %” value ([2]; Blacks, ABCB1 rs2229109 CA, N=1) was 0%, the “Prolonged PACU due to RD %” value ([2]; Blacks, ABCB1 rs2229109 CC, N=43) was 14% and the “Prolonged PACU due to RD %” value ([2]; Blacks, ABCB1 rs9282564 AA, N=41) was 10%. For the same molecule, the “Prolonged PACU due to RD %” value ([2]; Blacks, ABCB1 rs9282564 GA, N=3) was 67%, the “Prolonged PACU due to RD %” value ([2]; Whites, ABCB1 rs1045642 CC, N=49) was 4% and the “Prolonged PACU due to RD %” value ([2]; Whites, ABCB1 rs1045642 TC, N=100) was 15%. The “Prolonged PACU due to RD %” value ([2]; Whites, ABCB1 rs1045642 TT, N=70) was 10%, the “Prolonged PACU due to RD %” value ([2]; Whites, ABCB1 rs1128503 CC, N=70) was 9% and the “Prolonged PACU due to RD %” value ([2]; Whites, ABCB1 rs1128503 TC, N=102) was 13%. The “Prolonged PACU due to RD %” value ([2]; Whites, ABCB1 rs1128503 TT, N=47) was 11%, the “Prolonged PACU due to RD %” value ([2]; Whites, ABCB1 rs2032582 GA, N=7) was 0% and the “Prolonged PACU due to RD %” value ([2]; Whites, ABCB1 rs2032582 GG, N=65) was 9%. For the same molecule, the “Prolonged PACU due to RD %” value ([2]; Whites, ABCB1 rs2032582 GT, N=100) was 14%, the “Prolonged PACU due to RD %” value ([2]; Whites, ABCB1 rs2032582 TA, N=1) was 0% and the “Prolonged PACU due to RD %” value ([2]; Whites, ABCB1 rs2032582 TT, N=46) was 9%. The “Prolonged PACU due to RD %” value ([2]; Whites, ABCB1 rs2229109 CA, N=14) was 14%, the “Prolonged PACU due to RD %” value ([2]; Whites, ABCB1 rs2229109 CC, N=205) was 11% and the “Prolonged PACU due to RD %” value ([2]; Whites, ABCB1 rs9282564 AA, N=171) was 8%. For the same molecule, the “Prolonged PACU due to RD %” value ([2]; Whites, ABCB1 rs9282564 GA, N=46) was 20% and the “Prolonged PACU due to RD %” value ([2]; Whites, ABCB1 rs9282564 GG, N=2) was 100%.
